This experiment has as its target DYRK1A (Homo sapiens (Human), UniProt Q13627). As to the kind of experiment: DYRK1A Inhibition Assay. The experiment is classed as biochemical. As to conditions: Selected Compounds of Formula (I); DYRK1A 1 nM, ATP 20 μM, Ser/Thr 18 peptide 2 μM, 90 minutes; read-out: DYRK1 IC50. The method, then:
DYRK1A—Invitrogen #PV4105
Ser/Thr 18 peptide—Invitrogen #PR8227U Phos-Ser/Thr 18 peptide—Invitrogen #PR8229U Assay plate—PerkinElmer #6007279
Development reagent A—Invitrogen #PR5194B Development buffer—Invitrogen #PR4876B
1. Test compounds were diluted to 1 mM in DMSO 2. Stock was further diluted 3-fold using Echo platform 3. 100 nL of DMSO into Columns 1 and 24 and 100 nL of compounds dilutions to Columns 2-23 in a plate.
1. Add 5 μL enzyme & substrate mixture to each well in Column 2-23 and A24-H24 wells of the 384-well assay plate; 2. Add 5 μL 0% Phosphorylation control to A1-H1 and I24-P24 wells of the assay plate; 3. Add 5 μL 100% Phosphorylation control to I1-P1 wells of the assay plate; 4. Spin the assay plate (1000 rpm, 1 minute @23° C.); 5. Incubate enzyme with compounds for 15 minutes at 23° C.; 6. Add 5 μL ATP solution to each well of the assay plate; 7. Spin the plate (1000 rpm, 1 minute @23° C.); 8. Incubate the assay plate for 90 minutes at 23° C.; 9. Add 10 μL Development reagent A to each well of the assay plate; 10. Centrifuge the plate at 1000 rpm about 15 seconds and seal a film over assay plate. Incubate the assay plate for 30 minutes at 23° C. 11. Read assay plates on Envision (see Tables A, B, and C).
Final Compound Concentrations
Assay buffer: 50 mM Hepes pH7.5, 10 mM MgCl2, 1 mM EDTA, 0.01% Brij-35
Ser/Thr 18 peptide: 2 μM Reaction time: 90 minutes

As for `CN1CC(OC(=O)Nc2cc3cc(-c4cnn(C)c4)ccc3cn2)C1` [Compound 84], the 50% inhibitory concentration (IC50) was at most 10 nM.

With `CC(C)(O)C#Cc1ncc(-c2ccc3cncc(CN4CCC(C(=O)O)CC4)c3c2)s1` [Compound 109], the half-maximal inhibitory concentration (IC50) was above 1000 nM.

In the case of `O=C(O)C1CCN(Cc2cncc3ccc(-c4cnc(C#CC5CCOCC5)s4)cc23)CC1` [Compound 91], the IC50 lay in the range of 100 to 1000 nM.

As for `O=C(O)[C@H]1C[C@H](Nc2ncc(-c3ccc4cnccc4c3)s2)C1` [Compound 72], the IC50 was at most 10 nM.

As usually defined, the IC50 is the concentration that inhibits the measured activity by half.

For the origin of these results see patent US20250066318A1, “HETEROCYCLIC COMPOUNDS AS DYRK1A INHIBITORS” (Prothena Biosciences Limited, priority 2021, published 2025).
